Measured values as given in patent US10844023B2 (Washington University, priority 2017, dated 2020).

System: Mfn2 null MEFs
Assay: Mitochondrial elongation (aspect ratio) fusogenicity assay
Format: cell-based, mouse
Set-up: % long compare to B: dose or concentration left out as unconfirmed
Conditions: mitochondrial elongation relative to Cpd B (B01 = 100); Mfn2 null MEFs, compound overnight as printed (FIG. 48)
Description: A cultured murine embryonic fibroblast assay system was used in which mitochondrial elongation (an increase in aspect ratio) reflects enhanced mitochondrial fusion.
A pharmacophore model was generated based on the interactions of HR1 and HR2 domains in the calculated structural model of Mfn2 in the closed conformation. The key features included hydrophobic interactions involving Mfn2 HR1: Val372 and Met376, and aromatic interactions and hydrogen bonding involving Mfn2 HR1 His380. […] A library comprising ˜14 million commercially available compounds was prepared in silico and evaluated using PHASE to fit these criteria. Top ranked hits were clustered, and filtered based on pharmacological properties using Qikprop. The top 55 (see TABLE 4) commercially available small molecules conforming to the model were selected for functional screening and purchased in 1 mg aliquots. […] Images were acquired by confocal microscopy. Each compound was scored for fusogenicity (see e.g., FIG. 24A) and % cell death (see e.g., FIG. 24B).
Cells were excited with 408 nm (Hoechst), […] (MitoTracker Green and Calcein AM, GFP), or 637 nm (TMRE, MitoTracker Orange, Ethidium homodimer-1, and AF594-Dextran) laser diodes. For mitochondrial elongation studies mitochondrial aspect ratio (long axis/short axis) was calculated using automated edge detection and Image J software. Mitochondrial depolarization was calculated as % of green mitochondria visualized on MitoTracker Green and TMRE merged images, expressed as green/(green+yellow mitochondria)×100.

Structure (SMILES): CC(Sc1nnc(-c2ccco2)n1-c1ccccc1)C(=O)Nc1sc2c(c1C(N)=O)CCC2 (stereo not drawn) [1-06, 2-(2-{[5-(furan-2-yl)-4-phenyl-4H-1,2,4-triazol-3-yl]sulfanyl}propana-mido)-4H,5H,6H-cyclopenta[b]thiophene-3-carboxamide]
- % long compare to B: 10%

Structure (SMILES): Cn1c(SCC(=O)Nc2sc3c(c2C(N)=O)CCC3)nnc1-c1ccc(F)cc1 [1-A3, 2-(2-{[5-(4-fluorophenyl)-4-methyl-4H-1,2,4-triazol-3-yl]sulfanyl}acetamido)-4H,5H,6H-cyclopenta[b]-thiophene-3-carboxamide]
- % long compare to B: −10%

Structure (SMILES): CC1CCc2c(sc(NC(=O)CSc3nnc4n3CCCCC4)c2C(N)=O)C1 (stereo not drawn) [1-A4, 6-methyl-2-(2-{5H,6H,7H,8H,9H-[1,2,4]triazolo[4,3-a]azepin-3-ylsulfanyl}acetamido)-4,5,6,7-tetrahydro-1-benzothiophene-3-carboxamide]
- % long compare to B: 2%

Structure (SMILES): NC(=O)c1c(NC(=O)CSc2nc(C3CC3)n(-c3ccccc3)n2)sc2c1CCC2 [1-A5, 2-{2-[(5-cyclopropyl-1-phenyl-1H-1,2,4-triazol-3-yl)sulfanyl]acetamido}-4H,5H,6H-cyclopenta[b]thiophene-3-carboxamide]
- % long compare to B: −6%

Structure (SMILES): COc1ccc(-n2ccnc2SC(C)C(=O)Nc2sc3c(c2C(N)=O)CCC3)cc1 (stereo not drawn) [1-A7, 2-(2-{[1-(4-methoxyphenyl)-1H-imidazol-2-yl]sulfanyl}-propanamido)-4H,5H,6H-cyclopenta[b]thiophene-3-carboxamide]
- % long compare to B: −24%

Structure (SMILES): CCn1c(Cc2ccccc2)nnc1SC(C)C(=O)Nc1sc2c(c1C(N)=O)CCC2 (stereo not drawn) [1-A8, 2-{2-[(5-benzyl-4-ethyl-4H-1,2,4-triazol-3-yl)sulfanyl]-propanamido}-4H,5H,6H-cyclopenta[b]thiophene-3-carboxamide]
- % long compare to B: 47%

Structure (SMILES): NC(=O)c1c(NC(=O)CSc2nnc3n2CCCCC3)sc2c1CCC2 [1-A10, 2-(2-{5H,6H,7H,8H,9H-[1,2,4]triazolo[4,3-a]azepin-3-ylsulfanyl}acetamido)-4H,5H,6H-cyclopenta[b]thio-phene-3-carboxamide]
- % long compare to B: 45%

Structure (SMILES): CC1CCc2c(sc(NC(=O)CSc3nnc(C4CC4)n3C)c2C(N)=O)C1 (stereo not drawn) [1-A11, 2-{2-[(5-cyclopropyl-4-methyl-4H-1,2,4-triazol-3-yl)sulfanyl]acetamido}-6-methyl-4,5,6,7-tetrahydro-1-benzothiophene-3-carboxamide]
- % long compare to B: 6%

Structure (SMILES): CC(Sc1nnc(N2CCCCC2)n1-c1ccccc1)C(=O)Nc1sc2c(c1C(N)=O)CCC2 (stereo not drawn) [1-A12, 2-(2-{[4-phenyl-5-(piperidin-1-yl)-4H-1,2,4-triazol-3-yl]sul-fanyl]propanamido)-4H,5H,6H-cyclopenta[b]thiophene-3-carboxamide]
- % long compare to B: −8%

Structure (SMILES): CC1CCc2c(sc(NC(=O)CSc3nnc(C4CC4)n3-c3ccccc3)c2C#N)C1 (stereo not drawn) [1-B2, N-(3-cyano-6-methyl-4,5,6,7-tetrahydro-1-benzothiophen-2-yl)-2-[(5-cyclopropyl-4-phenyl-4H-1,2,4-triazol-3-yl)sulfanyl]acetamide]
- % long compare to B: −11%

Structure (SMILES): NC(=O)c1c(NC(=O)CSc2nnc(C3CC3)n2-c2ccccc2)sc2c1CCC2 [1-B3, 2-{2-[(5-cyclopropyl-4-phenyl-4H-1,2,4-triazol-3-yl)sulfanyl]acetamido}-4H,5H,6H-cyclopenta[b]thiophene-3-carboxamide]
- % long compare to B: 90%

Structure (SMILES): Cn1c(SCC(=O)Nc2sc3c(c2C(N)=O)CCC3)nnc1C(F)(F)F [1-B4, 2-(2-{[4-methyl-5-(trifluoro-methyl)-4H-1,2,4-triazol-3-yl]sulfanyl}acetamido)-4H,5H,6H-cyclopenta[b]-thiophene-3-carboxamide]
- % long compare to B: 10%
